# Molecular target: Recombinant Human Enteropeptidase (Homo sapiens (Human), UniProt P98073)
# Experiment: Enteropeptidase Inhibition Assay
# Assay type: biochemical
# Conditions: substrate Acetyl-Asp-Asp-Asp-Asp-Lys-AFC 30 μM, 30° C., 1 hour; Ki calculated from IC50 using Cheng-Prusoff equation
# Description: Enteropeptidase Inhibition Assay
# The inhibitory activity of the enteropeptidase inhibitor synthesized using the purified Recombinant Human Enteropeptidase and the substrate Acetyl-Asp-Asp-Asp-Asp-Lys-AFC (BioVision) was measured. 7.2 ng/mL of Enteropeptidase diluted with a buffer (20 mM Tris, 50 mM NaCl, pH 7.5) in a 96 well plate (Costar), 30 μM of Acetyl-Asp-Asp-Asp-Asp-Lys-AFC, several concentrations of Enteropeptidase inhibitors (1% DMSO concentration) were dispensed such that a final volume was 100 μL, and then the enzyme reaction was carried out at 30° C. for 1 hour. At this time, 1% DMSO, a substrate and Enteropeptidase instead of the compound were dispensed onto positive control wells, and 1% DMSO and a substrate were dispensed onto negative control wells. The enzyme reaction was […] using an excitation wavelength of 380 nm and an emission wavelength of 500 nm in a fluorescence spectrometer, and then the rate of increase in fluorescence (milli-units per min) between 20 and 60 minutes was measured.
# The fluorescence measurement values reduced by the inhibitor diluted at each concentration were converted into relative values % of the positive control group (100% reactivity) and the negative control group (0% reactivity), and used to calculate IC50 values. IC50 is the concentration of the inhibitor that inhibits the enzyme activity by 50%, and was calculated using PRISM (GraphPad). Ki values were calculated from the IC50 values using Cheng-Prusoff equation.
# Chain of Recombinant Human Enteropeptidase (P98073 whole entry): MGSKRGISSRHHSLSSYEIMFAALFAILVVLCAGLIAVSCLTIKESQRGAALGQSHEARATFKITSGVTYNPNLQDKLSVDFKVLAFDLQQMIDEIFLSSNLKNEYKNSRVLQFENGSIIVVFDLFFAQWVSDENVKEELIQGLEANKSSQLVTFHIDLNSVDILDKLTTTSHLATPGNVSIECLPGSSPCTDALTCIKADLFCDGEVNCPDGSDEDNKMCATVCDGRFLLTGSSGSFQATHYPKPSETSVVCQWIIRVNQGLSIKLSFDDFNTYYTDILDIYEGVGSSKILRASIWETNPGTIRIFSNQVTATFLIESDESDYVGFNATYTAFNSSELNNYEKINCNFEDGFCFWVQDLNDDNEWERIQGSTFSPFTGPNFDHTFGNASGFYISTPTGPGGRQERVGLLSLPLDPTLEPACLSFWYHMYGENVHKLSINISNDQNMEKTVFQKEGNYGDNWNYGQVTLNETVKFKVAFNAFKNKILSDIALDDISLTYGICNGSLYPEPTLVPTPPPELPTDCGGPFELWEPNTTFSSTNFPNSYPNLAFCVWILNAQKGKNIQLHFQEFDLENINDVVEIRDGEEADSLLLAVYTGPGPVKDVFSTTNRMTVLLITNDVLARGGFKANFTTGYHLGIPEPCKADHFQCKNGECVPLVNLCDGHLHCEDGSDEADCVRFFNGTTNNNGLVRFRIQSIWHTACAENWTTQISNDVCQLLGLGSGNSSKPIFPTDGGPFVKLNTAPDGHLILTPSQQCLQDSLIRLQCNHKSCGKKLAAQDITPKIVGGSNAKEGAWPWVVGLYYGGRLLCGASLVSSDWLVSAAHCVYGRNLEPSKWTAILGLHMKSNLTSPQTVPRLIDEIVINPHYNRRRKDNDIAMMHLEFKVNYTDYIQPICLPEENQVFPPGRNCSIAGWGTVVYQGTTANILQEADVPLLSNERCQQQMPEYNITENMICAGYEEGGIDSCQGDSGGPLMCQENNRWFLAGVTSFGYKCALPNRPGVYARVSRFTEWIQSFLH
row,Ki,Structure (SMILES)
1,7.4 nM,"N=C(N)c1ccc(OC(=O)c2ccc3nc(N4CCC(C(=O)O)CC4)sc3c2)cc1 [Example 58, 1-(6-((4-Carbamimidoylphenoxy)carbonyl)benzo[d]thiazol-2-yl)piperidine-4-carboxylic Acid]"
2,14 nM,"COC(=O)CCNc1nc2ccc(C(=O)Oc3ccc(C(=N)N)cc3)cc2s1 [Example 59, 4-Carbamimidoylphenyl 2-((3-methoxy-3-oxopropyl)amino)benzo[d]thiazole-6-carboxylate]"
3,10 nM,"COC(=O)CCN(C)c1nc2ccc(C(=O)Oc3ccc(C(=N)N)cc3)cc2s1 [Example 60, 4-Carbamimidoylphenyl 2-((3-methoxy-3-oxopropyl)(methyl)amino)benzo[d]thiazole-6-carboxylate]"
4,10 nM,"CCN(CCC(=O)OC)c1nc2ccc(C(=O)Oc3ccc(C(=N)N)cc3)cc2s1 [Example 61, 4-Carbamimidoylphenyl 2-(ethyl(3-methoxy-3-oxopropyl)amino)benzo[d]thiazole-6-carboxylate]"
5,4.3 nM,"CN(CCC(=O)O)c1nc2ccc(C(=O)Oc3ccc(C(=N)N)cc3)cc2s1 [Example 62, 3-((6-((4-Carbamimidoylphenoxy)carbonyl)benzo[d]thiazol-2-yl)(methyl)amino)propanoic Acid]"
6,13 nM,"COC(=O)CCCN(C)c1nc2ccc(C(=O)Oc3ccc(C(=N)N)cc3)cc2s1 [Example 63, 4-Carbamimidoylphenyl 2-((4-methoxy-4-oxobutyl)(methyl)amino)benzo[d]thiazole-6-carboxylate]"
7,6.4 nM,"CN(CCCC(=O)O)c1nc2ccc(C(=O)Oc3ccc(C(=N)N)cc3)cc2s1 [Example 64, 4-((6-((4-Carbamimidoylphenoxy)carbonyl)benzo[d]thiazol-2-yl)(methyl)amino)butanoic Acid]"
8,5.7 nM,"N=C(N)c1ccc(OC(=O)c2ccc3nc(NCCC(=O)O)sc3c2)cc1 [Example 65, 3-((6-((4-Carbamimidoylphenoxy)carbonyl)benzo[d]thiazol-2-yl)amino)propanoic Acid]"
9,4.8 nM,"CCN(CCC(=O)O)c1nc2ccc(C(=O)Oc3ccc(C(=N)N)cc3)cc2s1 [Example 66, 3-((6-((4-Carbamimidoylphenoxy)carbonyl)benzo[d]thiazol-2-yl)(ethyl)amino)propanoic Acid]"
10,19 nM,"COC(=O)C(C)(C)CNc1nc2ccc(C(=O)Oc3ccc(C(=N)N)cc3)cc2s1 [Example 67, 4-Carbamimidoylphenyl 2-((3-methoxy-2,2-dimethyl-3-oxopropyl)amino)benzo[d]thiazole-6-carboxylate]"
11,6 nM,"COC(=O)C(C)(C)CN(C)c1nc2ccc(C(=O)Oc3ccc(C(=N)N)cc3)cc2s1 [Example 68, 4-Carbamimidoylphenyl 2-((3-methoxy-2,2-dimethyl-3-oxopropyl)(methyl)amino)benzo[d]thiazole-6-carboxylate]"
12,21 nM,"CCN(CC(C)(C)C(=O)OC)c1nc2ccc(C(=O)Oc3ccc(C(=N)N)cc3)cc2s1 [Example 69, 4-Carbamimidoylphenyl 2-(ethyl(3-methoxy-2,2-dimethyl-3-oxopropyl)amino)benzo[d]thiazole-6-carboxylate]"
13,3.5 nM,"CCN(CC(C)(C)C(=O)OC)c1nc2ccc(C(=O)Oc3ccc(C(=N)N)cc3F)cc2s1 [Example 70, 4-Carbamimidoyl-2-fluorophenyl 2-(ethyl(3-methoxy-2,2-dimethyl-3-oxopropyl)amino)benzo[d]thiazole-6-carboxylate]"
14,1.1 nM,"COC(=O)CCCN(C)c1nc2ccc(C(=O)Oc3ccc(C(=N)N)cc3F)cc2s1 [Example 71, 4-Carbamimidoyl-2-fluorophenyl 2-((4-methoxy-4-oxobutyl)(methyl)amino)benzo[d]thiazole-6-carboxylate]"
15,1.3 nM,"COC(=O)CCN(C)c1nc2ccc(C(=O)Oc3ccc(C(=N)N)cc3F)cc2s1 [Example 72, 4-Carbamimidoyl-2-fluorophenyl 2-((3-methoxy-3-oxopropyl)(methyl)amino)benzo[d]thiazole-6-carboxylate]"
16,0.89 nM,"CC(C)(CNc1nc2ccc(C(=O)Oc3ccc(C(=N)N)cc3)cc2s1)C(=O)O [Example 73, 3-((6-((4-Carbamimidoylphenoxy)carbonyl)benzo[d]thiazol-2-yl)amino)-2,2-dimethylpropanoic Acid]"
17,8.9 nM,"CCN(CC(C)(C)C(=O)O)c1nc2ccc(C(=O)Oc3ccc(C(=N)N)cc3)cc2s1 [Example 74, 3-((6-((4-Carbamimidoylphenoxy)carbonyl)benzo[d]thiazol-2-yl)(ethyl) Amino)-2,2-dimethylpropanoic Acid]"
18,0.7 nM,"CCN(CC(C)(C)C(=O)O)c1nc2ccc(C(=O)Oc3ccc(C(=N)N)cc3F)cc2s1 [Example 75, 3-((6-((4-Carbamimidoyl-2-fluorophenoxy)carbonyl)benzo[d]thiazol-2-yl)(ethyl)amino)-2,2-dimethyl Propanoic Acid]"
19,0.57 nM,"CN(CCCC(=O)O)c1nc2ccc(C(=O)Oc3ccc(C(=N)N)cc3F)cc2s1 [Example 76, 4-((6-((4-Carbamimidoyl-2-fluorophenoxy)carbonyl)benzo[d]thiazol-2-yl)(methyl)amino)butanoic Acid]"
20,0.57 nM,"CN(CCC(=O)O)c1nc2ccc(C(=O)Oc3ccc(C(=N)N)cc3F)cc2s1 [Example 77, 3-((6-((4-Carbamimidoyl-2-fluorophenoxy)carbonyl)benzo[d]thiazol-2-yl)(methyl) Amino)propanoic Acid]"
21,23 nM,"N=C(N)c1ccc(OC(=O)c2ccc3nc(N4CCC(C(=O)Nc5ccccc5)CC4)sc3c2)cc1 [Example 80, 4-Carbamimidoylphenyl 2-(4-(phenylcarbamoyl)piperidin-1-yl)benzo[d]thiazole-6-carboxylate]"
22,1.9 nM,"N=C(N)c1ccc(OC(=O)c2ccc3nc(N4CCC(NC(=O)c5ccccc5)CC4)sc3c2)c(F)c1 [Example 82, 4-Carbamimidoyl-2-fluorophenyl 2-(4-benzoamidopiperidin-1-yl)benzo[d]thiazole-6-carboxylate]"
23,9.7 nM,"N=C(N)c1ccc(OC(=O)c2ccc3nc(N4CCC(NC(=O)c5ccccc5)CC4)sc3c2)cc1 [Example 83, 4-Carbamimidoylphenyl 2-(4-benzoamidopiperidin-1-yl)benzo[d]thiazole-6-carboxylate]"
24,2.2 nM,"CCN(CCC(=O)OC)c1nc2ccc(C(=O)Oc3ccc(C(=N)N)cc3F)cc2s1 [Example 84, 4-Carbamimidoyl-2-fluorophenyl 2-(ethyl(3-methoxy-3-oxopropyl)amino)benzo[d]thiazole-6-carboxylate]"
25,0.55 nM,"CCN(CCC(=O)O)c1nc2ccc(C(=O)Oc3ccc(C(=N)N)cc3F)cc2s1 [Example 85, 3-((6-((4-Carbamimidoyl-2-fluorophenoxy)carbonyl)benzo[d]thiazol-2-yl)(ethyl)amino)propanoic Acid]"
26,10 nM,"CN(CC(C)(C)C(=O)O)c1nc2ccc(C(=O)Oc3ccc(C(=N)N)cc3)cc2s1 [Example 86, 3-((6-((4-Carbamimidoylphenoxy)carbonyl)benzo[d]thiazol-2-yl)(methyl)amino)-2,2-dimethylpropanoic Acid]"
27,4 nM,"CCn1/c(=N/CC(C)(C)C(=O)OC)sc2cc(C(=O)Oc3ccc(C(=N)N)cc3F)ccc21 [Example 87, 4-Carbamimidoyl-2-fluorophenyl (Z)-3-ethyl-2-((3-methoxy-2,2-dimethyl-3-oxopropyl)imino)-2,3-dihydrobenzo[d]thiazole-6-carboxylate]"
28,0.16 nM,"CCn1/c(=N/CC(C)(C)C(=O)O)sc2cc(C(=O)Oc3ccc(C(=N)N)cc3F)ccc21 [Example 88, (Z)-3-((6-((4-Carbamimidoyl-2-fluorophenoxy)carbonyl)-3-ethylbenzo[d]thiazole-2(3H)-ylidine)amino)-2,2-dimethylpropanoic Acid]"
